# Measured values taken from patent US20200038513A1, “MODULATORS OF FAK PROTEOLYSIS AND ASSOCIATED METHODS OF USE” (ARVINAS OPERATIONS, INC., priority 2018, published 2020).
# Tested on: MDA-MB-231 cells
# Assay: RPPA (reverse phase protein array)
# Assay type: cell-based, human
# Conditions: 500nM
# Experimental: RPPA analysis was performed by MD Anderson Cancer Center RPPA core facility.
# Examination of the Molecular Signaling Events) and/or Downstream Pathways Responsible for the Migration and Invasion Effects Observed by Exemplary Compound Treatment. To pinpoint these observations to a molecular signaling event or specific downstream pathway, reverse phase protein array (RPPA) analysis was performed (Table 4).
smiles,measurement,value
"Cc1ncsc1-c1ccc(CNC(=O)[C@@H]2C[C@@H](O)CN2C(=O)[C@@H](NC(=O)CCOCCOc2ccc(Nc3ncc(C(F)(F)F)c(NCc4cccc(N(C)S(C)(=O)=O)c4)n3)cc2)C(C)(C)C)cc1 [Compound 102, (2S,4R)-1-((S)-3,3-dimethyl-2-(3-(2-(4-((4-((3-(N-methylmethylsulfonamido)benzyl)amino)-5-(trifluoromethyl)pyrimidin-2-yl)amino)phenoxy)ethoxy)propanamido)butanoyl)-4-hydroxy-N-(4-(4-methylthiazol-5-yl)benzyl)pyrrolidine-2-carboxamide]","rel. Protein level, 4E-BP1",110.6%
same,"rel. Protein level, 4E-BP1_pS65",92.3%
same,"rel. Protein level, 14-3-3-beta",100.5%
same,"rel. Protein level, 14-3-3-zeta",105.4%
same,"rel. Protein level, 53BP1",111.3%
same,"rel. Protein level, A-Raf",106.5%
same,"rel. Protein level, ACC1",103.3%
same,"rel. Protein level, ACC_pS79",95.4%
same,"rel. Protein level, ADAR1",121.2%
same,"rel. Protein level, AMPK-a2_pS345",97.2%
same,"rel. Protein level, AMPKa",105.1%
same,"rel. Protein level, AMPKa_pT172",92.7%
same,"rel. Protein level, AR",85.0%
same,"rel. Protein level, ARID1A",121.1%
same,"rel. Protein level, ATM",106.8%
same,"rel. Protein level, ATM_pS1981",99.7%
same,"rel. Protein level, ATR_pS428",99.2%
same,"rel. Protein level, Akt",101.7%
same,"rel. Protein level, Akt_pS473",74.2%
same,"rel. Protein level, Akt_pT308",94.2%
same,"rel. Protein level, Annexin-I",117.8%
same,"rel. Protein level, Annexin-VII",110.0%
same,"rel. Protein level, Atg3",98.3%
same,"rel. Protein level, Atg7",100.8%
same,"rel. Protein level, Aurora-B",92.3%
same,"rel. Protein level, Axl",94.7%
same,"rel. Protein level, B7-H4",97.5%
same,"rel. Protein level, B-Raf",110.9%
same,"rel. Protein level, B-Raf_pS445",108.0%
same,"rel. Protein level, BAP1",96.8%
same,"rel. Protein level, BRD4",118.7%
same,"rel. Protein level, Bad_pS112",102.3%
same,"rel. Protein level, Bak",100.7%
same,"rel. Protein level, Bax",110.5%
same,"rel. Protein level, Bc1-xL",97.6%
same,"rel. Protein level, Bc12",92.8%
same,"rel. Protein level, Beclin_l",100.0%
same,"rel. Protein level, BiP-GRP78",103.0%
same,"rel. Protein level, Bid",102.8%
same,"rel. Protein level, Bim",102.9%
same,"rel. Protein level, C-Raf",100.8%
same,"rel. Protein level, C-Raf_pS338",90.7%
same,"rel. Protein level, CD4",101.8%
same,"rel. Protein level, CD20",92.3%
same,"rel. Protein level, CD29",104.7%
same,"rel. Protein level, CD31",98.2%
same,"rel. Protein level, CD44",106.6%
same,"rel. Protein level, CD45",97.9%
same,"rel. Protein level, CD49b",116.5%
same,"rel. Protein level, CD134",99.0%
same,"rel. Protein level, CDK1_pT14",94.6%
same,"rel. Protein level, COG3",107.9%
same,"rel. Protein level, Caspase-3",106.7%
same,"rel. Protein level, Caspase-7-cleaved-",113.1%
same,"rel. Protein level, Caspase-8",102.4%
same,"rel. Protein level, Caveolin-1",141.0%
same,"rel. Protein level, Chk2",94.4%
same,"rel. Protein level, Chk2_pT68",103.4%
same,"rel. Protein level, Chkl",92.3%
same,"rel. Protein level, Chkl_pS296",96.6%
same,"rel. Protein level, Claudin-7",101.6%
same,"rel. Protein level, Collagen-VI",93.4%
same,"rel. Protein level, Connexin-43",92.3%
same,"rel. Protein level, Cox2",171.3%
same,"rel. Protein level, Cox-IV",104.5%
same,"rel. Protein level, Creb",103.4%
same,"rel. Protein level, Cyclin-B1",96.7%
same,"rel. Protein level, Cyclin-D1",105.2%
same,"rel. Protein level, Cyclin-D3",94.7%
same,"rel. Protein level, Cyclin-E1",110.5%
same,"rel. Protein level, Cyclophilin-F",97.6%
same,"rel. Protein level, D-a-Tubulin",95.2%
same,"rel. Protein level, DJ1",103.5%
same,"rel. Protein level, DM-Histone-H3",108.5%
same,"rel. Protein level, DM-K9-Histone-H3",111.9%
same,"rel. Protein level, DUSP4",142.6%
same,"rel. Protein level, E2F1",98.2%
same,"rel. Protein level, E-Cadherin",92.7%
same,"rel. Protein level, EGFR",98.2%
same,"rel. Protein level, EGFR_pY1173",101.5%
same,"rel. Protein level, EMA",109.4%
same,"rel. Protein level, ENY2",95.1%
same,"rel. Protein level, ER",98.1%
same,"rel. Protein level, ER-a_pS118",109.9%
same,"rel. Protein level, ERCC1",93.6%
same,"rel. Protein level, ERCC5",103.3%
same,"rel. Protein level, Elk1_pS383",97.5%
same,"rel. Protein level, Ets-1",97.7%
same,"rel. Protein level, FAK",55.4%
same,"rel. Protein level, FAK_pY397",86.4%
same,"rel. Protein level, FASN",92.6%
same,"rel. Protein level, FOXM1",92.4%
same,"rel. Protein level, Fibronectin",103.9%
same,"rel. Protein level, FoxO3a",100.5%
same,"rel. Protein level, FoxO3a_pS318_S321",96.0%
same,"rel. Protein level, G6PD",97.7%
same,"rel. Protein level, GAPDH",99.4%
same,"rel. Protein level, GATA3",97.2%
same,"rel. Protein level, GATA-6",99.4%
same,"rel. Protein level, GCLM",99.9%
same,"rel. Protein level, GCN5L2",99.4%
same,"rel. Protein level, GSK-3a-b",107.2%
same,"rel. Protein level, GSK-3a-b_pS21_S9",97.0%
same,"rel. Protein level, Gab2",100.5%
same,"rel. Protein level, Glutamate-D1-2",95.5%
same,"rel. Protein level, Glutaminase",111.5%
same,"rel. Protein level, Granzyme-B",101.4%
same,"rel. Protein level, Gys",111.6%
same,"rel. Protein level, Gys_pS641",105.2%
same,"rel. Protein level, H2AX_pS140",117.7%
same,"rel. Protein level, HER2",106.9%
same,"rel. Protein level, HER2_pY1248",97.5%
same,"rel. Protein level, HER3",102.8%
same,"rel. Protein level, HER3_pY1289",96.9%
same,"rel. Protein level, HES1",92.3%
same,"rel. Protein level, HLA-DR-DP-DQ-DX",101.7%
same,"rel. Protein level, HSP27",96.5%
same,"rel. Protein level, HSP27_pS82",95.4%
same,"rel. Protein level, HSP70",105.2%
same,"rel. Protein level, Heregulin",113.3%
same,"rel. Protein level, Hexokinase-II",99.4%
same,"rel. Protein level, Hif-l-alpha",130.8%
same,"rel. Protein level, Histone-H3",131.4%
same,"rel. Protein level, IGF1R_pY1135_Y1136",97.2%
same,"rel. Protein level, IGFBP2",89.0%
same,"rel. Protein level, IGFRb",98.5%
same,"rel. Protein level, INPP4b",98.0%
same,"rel. Protein level, IR-b",111.4%
same,"rel. Protein level, IRF-1",111.6%
same,"rel. Protein level, IRS1",101.4%
same,"rel. Protein level, JNK2",103.8%
same,"rel. Protein level, JNK_pT183_Y185",98.5%
same,"rel. Protein level, Jagged1",111.0%
same,"rel. Protein level, Jak2",107.2%
same,"rel. Protein level, LC3A-B",106.5%
same,"rel. Protein level, LDHA",123.8%
same,"rel. Protein level, LRP6_pS1490",128.4%
same,"rel. Protein level, Lck",96.8%
same,"rel. Protein level, MAPK_pT202-Y204",93.7%
same,"rel. Protein level, MCT4",126.7%
same,"rel. Protein level, MDM2_pS166",94.8%
same,"rel. Protein level, MEK1",106.4%
same,"rel. Protein level, MEK1_p_S217-S221",95.0%
same,"rel. Protein level, MERIT40_pS29",92.3%
same,"rel. Protein level, MIF",107.4%
same,"rel. Protein level, MIG6",106.7%
same,"rel. Protein level, MMP2",103.9%
same,"rel. Protein level, MMP14-[EP1264Y]",137.5%
same,"rel. Protein level, MMP-14",120.9%
same,"rel. Protein level, MSH6",97.8%
same,"rel. Protein level, MSI2",93.5%
same,"rel. Protein level, Mcl-1",89.4%
same,"rel. Protein level, Merlin",94.1%
